Values of other authors in patent US9683008B2, “Synthetic bile acid compositions and methods” (Kythera Biopharmaceuticals, Inc., priority 2010, dated 2017).

Columns and labels:
[1] = neutral pH
albumin = albumin (Homo sapiens, UniProt P02768); conditions: 0.4 mg/mL deoxycholate (comparable to the fasting state), in the presence of 26 mg/mL of albumin
Chain of albumin (P02768 25-609): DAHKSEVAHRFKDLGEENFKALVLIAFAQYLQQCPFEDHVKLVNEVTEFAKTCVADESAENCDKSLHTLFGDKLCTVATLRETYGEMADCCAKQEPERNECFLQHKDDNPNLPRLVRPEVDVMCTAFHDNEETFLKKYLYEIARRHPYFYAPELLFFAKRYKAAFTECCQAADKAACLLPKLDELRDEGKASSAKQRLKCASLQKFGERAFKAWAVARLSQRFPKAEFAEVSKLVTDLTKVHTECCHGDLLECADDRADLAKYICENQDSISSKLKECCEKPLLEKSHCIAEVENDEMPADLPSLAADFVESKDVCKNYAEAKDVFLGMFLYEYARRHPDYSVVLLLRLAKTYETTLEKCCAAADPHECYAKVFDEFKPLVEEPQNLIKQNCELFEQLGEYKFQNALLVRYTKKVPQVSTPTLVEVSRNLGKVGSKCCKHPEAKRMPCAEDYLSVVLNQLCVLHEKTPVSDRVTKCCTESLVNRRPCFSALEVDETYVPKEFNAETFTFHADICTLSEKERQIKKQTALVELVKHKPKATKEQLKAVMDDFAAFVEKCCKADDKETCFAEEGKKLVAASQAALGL

C[C@H](CCC(=O)[O-])[C@H]1CC[C@H]2[C@@H]3CC[C@@H]4C[C@H](O)CC[C@]4(C)[C@H]3C[C@H](O)[C@]12C.[Na+] [sodium deoxycholate]
solubility in acetone (acetone, compared with alcohol): even less soluble | solubility in glacial acetic acid (glacial acetic acid, compared with alcohol): even less soluble | soluble in water (water): 333 mg/mL | critical micelle concentration [1]: approximately 2.4 mg/mL | bound to albumin (albumin): 98%
